The text below walks through data of patent publication US6153429A (priority 1997, dated 2000).

One data set can be described thus: in vitro. The settings on record: mouse, c3h/10t1/2 t1 cells.
For data set [1] the following is noted: background statement, chemicals identified by IARC; cited from earlier work.

One may read the fold induction as the signal under treatment as a multiple of the control signal. A low value points to little rise in signal. On to `C=C(C)C12OC3(c4ccccc4)OC1C1C4OC4(CO)C(O)C4(O)C(=O)C(C)=CC4C1(O3)C(C)C2OC(=O)/C=C/C=C/c1ccccc1` (stereo not drawn) [Mezerein, mezerein], for which, in the data set “in vitro”, the fold induction at 504 h was 2.

As to `c1ccc2c(c1)cc1ccc3cccc4ccc2c1c34` [Benzo[a]pyrene, benzo[a]pyrene], the fold induction at 504 h in “in vitro” amounted to 1.15.

`Cn1c(=O)c2c(ncn2C)n(C)c1=O` [caffeine] registered a fold induction at 504 h in “in vitro” of 1.

For `CC/C(=C(/CC)c1ccc(O)cc1)c1ccc(O)cc1` [Diethylstilbestroel, diethylstilbestroel], the fold induction at 504 h in “in vitro” amounted to 1.12. Besides, the mutagenicity entry in data set [1] was “only weakly mutagenic”.

In turn, `C1CCOC1` [tetrahydrofuran] came in with a fold induction at 504 h in “in vitro” of 1.
